How the values were obtained:
CYP3A4 = CYP3A4 (Homo sapiens, UniProt P08684); test: CYP3A4 fluorescent MBI test; assay type: in vitro ADME; parameters: host or cells: E. coli; conditions: (IC50 without pre reaction) − (IC50 with pre reaction), pre-reaction 0 or 30 minutes
Description: The CYP3A4 fluorescent MBI test is a test to examine enhancement of CYP3A4 inhibition by metabolic reaction of the compound. Here, E. coli-expressing CYP3A4 was used as an enzyme, and a reaction wherein 7-benzyloxy trifluoromethylcumarin (BFC) was debenzylated by the CYP3A4 enzyme into a fluorescent metabolite 7-hydroxytrifluoromethylcumarin (HFC) was employed as an indicator reaction. The reaction conditions were as follows.
Substrate: 5.6 μM/L 7-BFC
Pre-reaction time: 0 or 30 minutes
Reaction time: 15 minutes
Reaction temperature: 25° C. (room temperature)
CYP3A4 content (E. coli-expressing enzyme): 62.5 pmol/mL at pre-reaction, 6.25 pmol/mL at reaction (10-fold diluted)
Test compound concentration: 0.625, 1.25, 2.5, 5, 10, and 20 μM (six different concentrations).
The enzyme and a test compound solution were added to a K-Pi buffer (pH 7.4) in the aforementioned amounts for the pre-reaction so that a pre-reaction solution was prepared, and this solution was put into a 96-well microplate. Part of this solution was transferred to another 96-well microplate such that it was diluted with the substrate and the K-Pi buffer to get a 10-fold diluted solution. NADPH, which is a coenzyme, was added so as to trigger the indicator reaction (without pre-reaction). As the reaction proceeded for a predetermined time period, acetonitrile/0.5 M Tris (tris hydroxyaminomethane)=4/1 was added to terminate the reaction. NADPH was also added to the residual pre-reaction solution so as to trigger the pre-reaction (with pre-reaction). As the pre-reaction proceeded for a predetermined time period, part of the solution was transferred to another microplate so that the solution was diluted with the substrate and the K-Pi buffer to get a 10-fold diluted solution, and then the indicator reaction was triggered. As the reaction proceeded for a predetermined time period, acetonitrile/0.5 M Tris (tris hydroxyaminomethane)=4/1 was added so as to terminate the reaction. With respect to each of the microplates on which the indicator reaction was performed, the fluorescence value of the metabolite 7-HFC was measured with a fluorescence plate reader (Ex=420 nm, Em=535 nm).
Control (100%) was prepared by adding only DMSO, which was used as a solvent to dissolve the drug, to the reaction system. The remaining activity (%) at each concentration after adding the test compound solution was calculated, and the IC50 values of without pre reaction and with pre reaction were calculated by the formula: y=A+((B−A)/(1+((C/x)^D))) using XLfit. The IC50 shift value was calculated by the formula: (the IC50 value of without pre reaction)−(the IC50 value of with pre reaction).

[1] = system: Neuroblastoma SH-SY5Y cells (SH/APPwt) with human wild-type β-APP excessively expressed; test: Measurement of β-amyloid (Aβ) production inhibitory effect in cell; assay type: cell-based; conditions: Homo sapiens, SH-SY5Y, 24 h, amount needed to inhibit Aβ production by 50%, 24 hours incubation, Amyloid β1-40 HTRF
Description: Neuroblastoma SH-SY5Y cells (SH/APPwt) with human wild-type β-APP excessively expressed therein were prepared at 8×10^5 cells/mL, and 150 μl portions thereof were inoculated into each well of a 96-well culture plate (Falcon). The cells were cultured for 2 hours at 37° C. in a 5% gaseous carbon dioxide incubator. Then, a solution which had been preliminarily prepared by adding and suspending the test compound (DMSO (dimethyl sulfoxide) solution) so as to be 2 μl/50 μl medium was added to the cell sap. Namely, the final DMSO concentration was 1%, and the amount of the cell culture was 200 μl. After the incubation was performed for 24 hours from the addition of the test compound, 100 μl of the culture supernatant was collected from each fraction. The amount of the Aβ in each fraction was measured.
The […] was measured as follows. 10 μl of a homogeneous time resolved fluorescence (HTRF) measurement reagent (Amyloid β1-40 peptide; IBA Molecular Holding, S.A.) and 10 μl of the culture supernatant were put into a 384-well half area microplate (black microplate, Costar) and mixed with each other, and then left standing overnight at 4° C. while the light was shielded. Then, the fluorescence intensity (excitation wavelength: 337 nm, measurement wavelength: 620 nm and 665 nm) was measured with a Wallac 1420 multilabel counter (Perkin Elmer life sciences). The Aβ amount was determined from the count rate at each measurement wavelength (10000×Count 665/Count 620), and the amount needed to inhibit Aβ production by 50% (IC50) was calculated from at least six different dosages.

hERG channel = molecular target: T1, hERG channel (Homo sapiens, UniProt Q12809); test: hERG test (whole-cell patch clamp); assay type: cell-based; conditions: HEK293 cells that express hERG, 5 μM test compound for 7 minutes, peak tail current, read-out: Inhibition Rate (%)
T1 construct: expressed in transfected cells; host or cells: HEK293
Description: As risk assessment for QT prolongation in vitro, the action on delayed rectifier potassium current was studied using a HEK293 cell with a human delayed potassium ether-a-go-go related gene (hERG) channel expressed therein.
A cell was maintained at a membrane potential of −80 mV, then +50 mV of a depolarizing stimulus (2 seconds) was applied to the cell, further −50 mV of a repolarizing stimulus (2 seconds) was applied thereto and the induced peak tail current was measured by a whole-cell patch clamp technique. 5 μM of the test compounds was applied to the cells for 7 minutes, the inhibition rate before application of the test compound was calculated, and it was compared to the rate of vehicle group (0.5% dimethylsulfoxide solution).

Recombinant human BACE1 = molecular target: T2, Recombinant human BACE1 (Homo sapiens, UniProt P56817); test: Assay of BACE1 inhibiting activity; assay type: biochemical; conditions: 50% inhibitory concentration against enzymatic activity, pH 5.0, 30° C., 3 hours
T2 construct: purchased R&D Systems
Description: 48.5 μL of substrate peptide solution (Biotin-XSEVNLDAEFRHDSGC-Eu: Xεε-amino-n-capronic acid, Eu=Europium cryptate) was added to each well of 96-hole half-area plate (a black plate: Costar Corporation), and after addition of 0.5 μl of the test compound (dissolved in […]) and 1 μl of Recombinant human BACE1 (R&D Systems), the reaction mixture was incubated at 30° C. for 3 hours. The substrate peptide was synthesized by reacting Cryptate TBPCOOH mono SMP (CIS bio international) with Biotin-XSEVNLDAEFRHDSGC (Peptide Institute, Inc.). The final concentrations of the substrate peptide and Recombinant human BACE1 were adjusted to 18 nM and 7.4 nM respectively, and the reaction was performed in sodium acetate buffer (50 mM sodium acetate, pH 5.0, 0.008% Triton X-100). After the completion of reaction, 50 μl of 8.0 μg/ml Streptavidin-XL665 (CIS bio international) dissolved in phosphate buffer (150 mM K2HPO4—KH2PO4, pH 7.0, 0.008% Triton X-100, 0.8 M KF) was added to each well and left stand at 30° C. for an hour. Then, fluorescence intensity was measured (excitation wavelength: 320 nm, measuring wavelength: 620 nm and 665 nm) using Wallac 1420 multilabel counter (Perkin Elmer life sciences). Enzymatic activity was determined from counting ratio of each wavelength (10,000×Count 665/Count 620) and 50% inhibitory concentration against the enzymatic activity was calculated.

Solubility test = assay type: physicochemical; conditions: JP-I medium with 2% DMSO, pH 1.2, simulated gastric fluid, kinetic from dmso stock, turbidity after 4 hours
Description: A 2-fold dilution series (12 points) of a 10 mM solution of a test compound in DMSO was added to a medium (JP-I, JP-II) (2%), and solubility was assessed by 3 stages (High; >40 μM, Medium; 3-40 μM, Low; <3 μM) from a turbidity after 4 hours (crystallization information).

T1 sequence (Q12809 whole entry): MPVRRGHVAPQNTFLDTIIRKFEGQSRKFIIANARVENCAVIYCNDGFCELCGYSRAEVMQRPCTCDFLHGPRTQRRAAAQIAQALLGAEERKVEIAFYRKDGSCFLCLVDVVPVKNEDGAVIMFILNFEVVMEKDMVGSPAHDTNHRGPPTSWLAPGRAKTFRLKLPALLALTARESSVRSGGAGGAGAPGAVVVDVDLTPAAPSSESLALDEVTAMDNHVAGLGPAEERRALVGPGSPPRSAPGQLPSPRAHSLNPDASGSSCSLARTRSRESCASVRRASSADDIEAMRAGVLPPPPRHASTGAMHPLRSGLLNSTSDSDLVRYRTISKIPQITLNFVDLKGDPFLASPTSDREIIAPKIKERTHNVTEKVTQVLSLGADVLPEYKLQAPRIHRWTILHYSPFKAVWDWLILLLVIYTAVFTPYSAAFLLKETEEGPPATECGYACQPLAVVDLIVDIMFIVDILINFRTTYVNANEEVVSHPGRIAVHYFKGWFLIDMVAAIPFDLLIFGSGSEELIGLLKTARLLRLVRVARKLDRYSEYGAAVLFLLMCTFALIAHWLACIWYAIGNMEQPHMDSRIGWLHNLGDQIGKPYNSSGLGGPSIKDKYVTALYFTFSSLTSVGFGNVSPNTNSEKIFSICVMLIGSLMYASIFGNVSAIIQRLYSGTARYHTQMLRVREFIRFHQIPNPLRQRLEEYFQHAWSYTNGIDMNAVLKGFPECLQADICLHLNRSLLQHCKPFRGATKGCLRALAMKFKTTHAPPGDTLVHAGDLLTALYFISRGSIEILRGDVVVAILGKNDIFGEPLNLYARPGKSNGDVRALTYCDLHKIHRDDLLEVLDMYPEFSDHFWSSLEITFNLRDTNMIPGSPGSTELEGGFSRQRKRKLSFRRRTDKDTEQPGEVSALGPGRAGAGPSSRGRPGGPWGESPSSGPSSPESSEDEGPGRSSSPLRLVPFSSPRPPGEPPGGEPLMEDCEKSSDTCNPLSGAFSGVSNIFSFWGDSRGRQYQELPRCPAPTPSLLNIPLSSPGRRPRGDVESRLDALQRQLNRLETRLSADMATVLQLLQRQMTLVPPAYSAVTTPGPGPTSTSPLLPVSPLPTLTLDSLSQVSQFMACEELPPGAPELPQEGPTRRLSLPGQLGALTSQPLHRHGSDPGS
T2 sequence (P56817 46-501): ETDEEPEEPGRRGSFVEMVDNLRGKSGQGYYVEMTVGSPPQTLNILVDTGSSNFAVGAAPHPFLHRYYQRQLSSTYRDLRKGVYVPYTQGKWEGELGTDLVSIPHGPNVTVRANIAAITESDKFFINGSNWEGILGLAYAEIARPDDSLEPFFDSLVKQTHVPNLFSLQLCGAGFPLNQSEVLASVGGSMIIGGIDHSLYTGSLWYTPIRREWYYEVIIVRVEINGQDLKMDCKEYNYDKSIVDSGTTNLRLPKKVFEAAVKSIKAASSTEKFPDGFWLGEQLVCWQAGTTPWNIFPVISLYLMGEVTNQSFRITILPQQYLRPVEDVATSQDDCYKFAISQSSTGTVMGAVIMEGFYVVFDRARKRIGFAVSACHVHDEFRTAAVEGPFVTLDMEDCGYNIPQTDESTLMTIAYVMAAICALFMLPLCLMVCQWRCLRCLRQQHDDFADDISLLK
Sequence of CYP3A4 (P08684 whole entry): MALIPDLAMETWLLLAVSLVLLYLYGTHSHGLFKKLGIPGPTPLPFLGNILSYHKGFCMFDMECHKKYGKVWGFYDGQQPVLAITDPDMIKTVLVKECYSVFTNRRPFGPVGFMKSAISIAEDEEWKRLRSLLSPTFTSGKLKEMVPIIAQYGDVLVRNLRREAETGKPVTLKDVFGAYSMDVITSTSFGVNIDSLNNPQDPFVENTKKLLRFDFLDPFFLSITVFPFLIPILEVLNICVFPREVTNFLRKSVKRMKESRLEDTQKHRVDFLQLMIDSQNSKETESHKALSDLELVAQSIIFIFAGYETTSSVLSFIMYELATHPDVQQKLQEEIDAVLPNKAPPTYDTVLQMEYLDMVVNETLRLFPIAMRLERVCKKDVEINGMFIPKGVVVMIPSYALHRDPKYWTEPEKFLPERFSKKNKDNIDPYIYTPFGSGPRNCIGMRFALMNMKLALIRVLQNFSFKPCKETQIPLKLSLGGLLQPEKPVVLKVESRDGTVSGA

SMILES | IC50 shift (CYP3A4) [nM] | IC50 [1] [nM] | inhibition at 7 min, 5 µM (hERG channel) [%] | IC50 (Recombinant human BACE1) [nM] | solubility at 4 h (Solubility test) [µM]
CS/C(N)=N/C1CCc2ccc(NC(=O)c3ccc(C#N)cn3)cc21 (stereo not shown) [Compound 32] | 0 | 260 | – | – | –
CN(C)CCCO/C(N)=N/Cc1cccc(NC(=O)c2ccc(C#N)cn2)c1 [Compound 38] | – | ≤ 1000 | 8.4 | – | –
CC#CCOc1cnc(C(=O)Nc2cccc(C/N=C(/N)SCc3ccncc3)c2)cn1.O=CO [Compound 12] | <-2000 | 36 | – | 270 | –
CS/C(N)=N\C1(c2cccc(NC(=O)c3cnc(C)cn3)c2)CCCC1 [Compound 30] | 0 | – | 14.1 | – | –
CC#CCOc1cnc(C(=O)Nc2cccc(C/N=C(/N)SCc3ccccc3)c2)cn1 [Compound 4] | 1000 | 119 | – | ≤ 1000 | –
CS/C(N)=N\Cc1cc(NC(=O)c2ccc(C#N)cn2)ccc1F [Compound 2] | 0 | 100 | – | – | –
CC#CCOc1cnc(C(=O)Nc2cccc(C/N=C(/N)SCCc3ccccc3)c2)cn1 [Compound 6] | -2000 | 172 | – | ≤ 1000 | –
CC#CCOc1cnc(C(=O)Nc2ccc(F)c(C3(/N=C(/N)SC)CC3)c2)cn1 [Compound 15] | <-3000 | 4 | 31.5 | 140 | –
CS/C(N)=N\Cc1cccc(NC(=O)c2cnc(C)cn2)c1 [Compound 18] | 0 | – | 10.8 | – | –
CC#CCOc1cnc(C(=O)Nc2cccc(C/N=C(/N)SC)c2)cn1 [Compound 3] | 0 | 5 | 67.6 | 130 | –
CS/C(N)=N\C1(c2cccc(NC(=O)c3ccc(C#N)cn3)c2)CCCC1 [Compound 31] | – | ≤ 1000 | – | – | > 40
CS/C(N)=N\C1(c2cc(NC(=O)c3ccc(C#N)cn3)ccc2F)CC1 [Compound 1] | 0 | 55 | 63.8 | 3670 | –
CC#CCOc1cnc(C(=O)Nc2cccc(C/N=C(/N)SCc3ccccn3)c2)cn1.O=CO [Compound 11] | -2000 | 524 | – | 290 | –
CS/C(N)=N\c1cccc2ccc(NC(=O)c3ccc(C#N)cn3)cc12 [Compound 28] | 1000 | 193 | 60.4 | 790 | > 40
CC#CCOc1cnc(C(=O)Nc2cccc(C/N=C(/N)SCC)c2)cn1 [Compound 7] | <-2000 | 82 | – | 1210 | –
CO/C(N)=N\Cc1cc(NC(=O)c2cnc(C)cn2)ccc1F [Compound 40] | – | ≤ 1000 | – | – | > 40
CC#CCOc1cnc(C(=O)Nc2cccc(C/N=C(/N)SCCCC)c2)cn1 [Compound 9] | -5000 | 61 | – | ≤ 1000 | –
CC#CCOc1cnc(C(=O)Nc2cccc(C/N=C(/N)SCCC)c2)cn1 [Compound 8] | -4000 | 40 | – | ≤ 1000 | –
CO/C(N)=N\C1(c2cccc(NC(=O)c3cnc(OC)cn3)c2)CC1 [Compound 45] | – | 28 | 2.5 | – | > 40
C=CCS/C(N)=N\Cc1cccc(NC(=O)c2cnc(OCC#CC)cn2)c1 [Compound 5] | -2000 | 160 | – | ≤ 1000 | –

— patent US20120015961A1, “ISOTHIOUREA DERIVATIVES OR ISOUREA DERIVATIVES HAVING BACE1 INHIBITORY ACTIVITY” (SHIONOGI & CO., LTD., priority 2009, published 2012)
